One experiment deals with T1, Exodeoxyribonuclease V (Escherichia coli (strain K12), UniProt P04993+P07648+P08394).
T1 sequence (P04993 whole entry): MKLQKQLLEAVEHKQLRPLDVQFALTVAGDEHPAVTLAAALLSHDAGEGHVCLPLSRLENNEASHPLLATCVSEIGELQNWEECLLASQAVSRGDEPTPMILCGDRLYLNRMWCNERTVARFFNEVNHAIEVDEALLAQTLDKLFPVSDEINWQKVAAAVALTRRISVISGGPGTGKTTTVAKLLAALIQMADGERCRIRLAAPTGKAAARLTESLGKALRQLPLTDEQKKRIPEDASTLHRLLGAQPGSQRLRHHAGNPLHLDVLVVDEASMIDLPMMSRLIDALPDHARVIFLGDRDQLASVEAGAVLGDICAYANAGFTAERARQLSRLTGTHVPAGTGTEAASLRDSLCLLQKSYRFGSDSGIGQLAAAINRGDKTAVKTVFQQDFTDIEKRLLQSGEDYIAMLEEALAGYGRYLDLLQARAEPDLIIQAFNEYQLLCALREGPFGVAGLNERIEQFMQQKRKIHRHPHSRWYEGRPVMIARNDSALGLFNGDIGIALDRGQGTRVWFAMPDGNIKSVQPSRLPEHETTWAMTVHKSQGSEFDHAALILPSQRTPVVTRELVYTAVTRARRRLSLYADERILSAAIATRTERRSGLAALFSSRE
T1 sequence (P07648 whole entry): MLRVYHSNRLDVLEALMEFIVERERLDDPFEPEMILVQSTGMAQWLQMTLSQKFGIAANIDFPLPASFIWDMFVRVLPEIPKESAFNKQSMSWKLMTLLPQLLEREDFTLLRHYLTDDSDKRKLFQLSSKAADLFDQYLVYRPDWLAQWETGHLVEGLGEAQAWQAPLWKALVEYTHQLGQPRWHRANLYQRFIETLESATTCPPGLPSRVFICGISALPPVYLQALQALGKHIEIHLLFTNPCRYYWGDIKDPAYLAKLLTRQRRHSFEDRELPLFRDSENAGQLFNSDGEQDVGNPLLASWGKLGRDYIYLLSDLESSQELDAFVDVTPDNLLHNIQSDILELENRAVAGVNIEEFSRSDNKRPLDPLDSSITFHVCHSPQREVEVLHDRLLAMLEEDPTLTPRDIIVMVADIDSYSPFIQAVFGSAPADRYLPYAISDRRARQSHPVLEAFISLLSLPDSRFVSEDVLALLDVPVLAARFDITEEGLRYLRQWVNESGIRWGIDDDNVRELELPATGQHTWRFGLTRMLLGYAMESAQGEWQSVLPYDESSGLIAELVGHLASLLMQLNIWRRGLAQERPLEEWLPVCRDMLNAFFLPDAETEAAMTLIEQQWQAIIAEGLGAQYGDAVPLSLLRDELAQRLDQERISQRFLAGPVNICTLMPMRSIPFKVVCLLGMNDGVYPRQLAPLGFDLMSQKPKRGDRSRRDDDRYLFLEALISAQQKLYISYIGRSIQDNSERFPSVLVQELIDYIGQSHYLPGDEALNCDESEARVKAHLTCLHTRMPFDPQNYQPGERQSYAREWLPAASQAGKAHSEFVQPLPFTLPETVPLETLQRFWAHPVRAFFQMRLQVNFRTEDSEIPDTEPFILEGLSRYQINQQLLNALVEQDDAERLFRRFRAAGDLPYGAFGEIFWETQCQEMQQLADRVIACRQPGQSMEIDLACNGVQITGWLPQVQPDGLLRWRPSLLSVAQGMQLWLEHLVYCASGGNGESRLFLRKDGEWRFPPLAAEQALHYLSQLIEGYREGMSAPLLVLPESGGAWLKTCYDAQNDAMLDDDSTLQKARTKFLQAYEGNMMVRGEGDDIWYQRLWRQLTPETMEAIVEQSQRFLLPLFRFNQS
T1 sequence (P08394 whole entry): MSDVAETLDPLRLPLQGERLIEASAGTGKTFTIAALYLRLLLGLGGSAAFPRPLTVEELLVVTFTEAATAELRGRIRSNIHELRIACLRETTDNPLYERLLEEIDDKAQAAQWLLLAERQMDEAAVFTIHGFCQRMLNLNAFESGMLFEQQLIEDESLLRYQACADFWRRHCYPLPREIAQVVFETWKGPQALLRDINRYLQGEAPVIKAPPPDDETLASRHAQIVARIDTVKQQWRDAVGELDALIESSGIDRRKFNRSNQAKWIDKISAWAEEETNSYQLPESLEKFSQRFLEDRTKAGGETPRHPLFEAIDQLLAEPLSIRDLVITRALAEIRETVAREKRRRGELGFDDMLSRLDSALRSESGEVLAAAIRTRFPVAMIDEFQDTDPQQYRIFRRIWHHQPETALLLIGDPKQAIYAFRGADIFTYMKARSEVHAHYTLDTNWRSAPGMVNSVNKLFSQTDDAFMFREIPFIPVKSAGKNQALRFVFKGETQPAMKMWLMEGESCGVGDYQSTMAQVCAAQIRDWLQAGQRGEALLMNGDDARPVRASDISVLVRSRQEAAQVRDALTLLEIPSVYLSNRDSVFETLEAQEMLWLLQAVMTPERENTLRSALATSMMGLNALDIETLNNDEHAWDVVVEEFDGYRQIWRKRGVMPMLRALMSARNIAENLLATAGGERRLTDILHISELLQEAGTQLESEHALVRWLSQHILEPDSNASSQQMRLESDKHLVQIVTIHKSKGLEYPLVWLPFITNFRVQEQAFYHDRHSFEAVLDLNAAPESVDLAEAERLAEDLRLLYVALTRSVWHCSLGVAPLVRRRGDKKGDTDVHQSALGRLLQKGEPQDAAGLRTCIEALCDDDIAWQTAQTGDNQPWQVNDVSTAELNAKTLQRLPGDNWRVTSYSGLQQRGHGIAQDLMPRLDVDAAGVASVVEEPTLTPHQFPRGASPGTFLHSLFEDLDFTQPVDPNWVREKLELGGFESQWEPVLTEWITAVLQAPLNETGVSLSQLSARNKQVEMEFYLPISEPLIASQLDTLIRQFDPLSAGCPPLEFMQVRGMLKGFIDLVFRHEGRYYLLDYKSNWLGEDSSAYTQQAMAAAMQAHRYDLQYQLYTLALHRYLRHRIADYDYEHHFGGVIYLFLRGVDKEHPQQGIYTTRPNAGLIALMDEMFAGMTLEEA
The experiment can be described thus: E. coli RecBCD inhibitors, dose response, counter-screen for AddAB inhibitor project, absorbance, V66 E. coli, mutant T4 phage (AID 492957). The class given is functional, cell-based, Escherichia coli str. K-12 substr. MG1655.

Experiment [1] can be described thus: Counterscreen for AddAB inhibitors: absorbance-based bacterial cell-based high throughput dose response assay for inhibitors of bacterial viability. [Related pubchem assays (depositor defined):AID435030, AID449728, AID449731, AID488942, AID488955, AID488956]. The class given is functional. (In general: A counterscreen serves to expose hits that act by an unwanted route or on another target.)

The target of experiment [2] is Latent membrane protein 1 (Human herpesvirus 4 (strain B95-8), UniProt P03230). Kind of experiment: TES1-eGFP NF-kB reporter inhibition versus Tet-On dsRED, dose response, selectivity assay for LMP1 NF-kB inhibitor project, imaging, HEK293T, dual-color eGFP/dsRED, cherry-picks (AID 588398). Format: functional, cell-based.
Chain of Latent membrane protein 1 (P03230 whole entry): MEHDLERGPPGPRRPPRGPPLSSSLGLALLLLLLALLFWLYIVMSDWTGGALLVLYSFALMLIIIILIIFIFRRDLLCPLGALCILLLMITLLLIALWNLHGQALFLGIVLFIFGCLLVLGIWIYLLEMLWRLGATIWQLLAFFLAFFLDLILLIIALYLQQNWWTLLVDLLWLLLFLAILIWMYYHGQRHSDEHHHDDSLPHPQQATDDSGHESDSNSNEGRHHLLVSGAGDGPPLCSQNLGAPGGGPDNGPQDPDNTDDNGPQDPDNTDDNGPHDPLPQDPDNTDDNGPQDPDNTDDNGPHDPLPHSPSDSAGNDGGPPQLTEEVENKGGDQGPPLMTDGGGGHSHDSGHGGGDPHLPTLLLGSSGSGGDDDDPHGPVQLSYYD

A word on the IC50: it is the concentration that inhibits the measured activity by half. Broadly, the AC50 is the midpoint of the concentration-response curve, whichever way the signal moves.

Calls of active or inactive are those of the source. No rule for the calls is given here.

For `O=C(N/N=C/c1ccc(O)cc1O)C(=O)N/N=C/c1ccc(O)cc1O`, the IC50 (on Exodeoxyribonuclease V; in experiment [1]) was > 119 µM (inactive) in each case.
On to `Cc1onc(-c2ccccc2)c1C(=O)NC(=S)NNC(=O)c1ccc(O)cc1O`, for which the AC50 in experiment [2] is 1.15 µM (active). In addition, the IC50 (at Exodeoxyribonuclease V; in experiment [1]) was > 39.5 µM (inactive) each time.

These data come from ChEMBL document CHEMBL1201862, “PubChem BioAssay data set” (2004).
